From paper PMC10830462, “Molecular insights into the dynamic modulation of bacterial ClpP function and oligomerization by peptidomimetic boronate compounds” (Scientific Reports, 2024)

Experiments:
Assay type in all cases: binding
[1] = target: T1, SeClpP (ClpP from Staphylococcus epidermidis) (Staphylococcus epidermidis, UniProt Q8CTE0); assay: nanoDSF thermal shift; settings: 10 µM SeClpP, pH 7.5, 100 mM KCl, 2 mM DTT, no glycerol; covalent (reversible boronate)
T1 construct: codon-optimised ORF in pET28a(+), C-terminal His-tag, expressed in E. coli BL21(DE3) Star; homotetradecamer (about 300 kDa) of two stacked heptameric rings, heptamers also present without glycerol; catalytic triad Ser98, His123, Asp172
T1 sequence (Q8CTE0 1-194): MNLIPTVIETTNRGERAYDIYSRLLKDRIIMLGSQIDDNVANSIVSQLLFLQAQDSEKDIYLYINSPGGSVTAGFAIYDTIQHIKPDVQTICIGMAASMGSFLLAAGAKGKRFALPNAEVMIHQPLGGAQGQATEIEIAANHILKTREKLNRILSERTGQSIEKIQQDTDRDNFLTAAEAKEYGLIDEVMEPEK

[2] = target: T1, SeClpP (ClpP from Staphylococcus epidermidis); assay: isothermal titration calorimetry; settings: read-out: K (converted)
[3] = target: T1, SeClpP (ClpP from Staphylococcus epidermidis); assay: X-ray crystal structure, soaked crystals, […] Å; settings: catalytic site; covalent (boron to Ser98, reversible); crystals soaked with 10 mM ixazomib

With `CC(C)C[C@H](NC(=O)CNC(=O)c1cc(Cl)ccc1Cl)B(O)O` [ixazomib] the melting temperature [1] was “SeClpP bound to the peptidomimetic boronate, and therefore more thermostable”, the Kd [2] was 5.38 µM and the “X-ray crystal structure, soaked crystals, 2.33 Å” value [3] was “the boron atom of ixazomib is covalently bound to Ser98”.
